The supplement of paper PMC10307832

Legend:
Assay in all cases: relative viability (nuclei count vs DMSO), 5 days (fraction); higher = more cells survive
Linsitinib + Tozasertib = compound: C[C@]1(O)C[C@@H](c2nc(-c3ccc4ccc(-c5ccccc5)nc4c3)c3c(N)nccn32)C1 [Linsitinib] + Cc1cc(Nc2cc(N3CCN(C)CC3)nc(Sc3ccc(NC(=O)C4CC4)cc3)n2)n[nH]1 [Tozasertib] (partner 0.1 µM)
Procedure, shortened: (§1)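 After 5 days of treatment, lung cancer cells in 1536-well plates were fixed and stained in a single step (final 0.05% Triton X-100, 1% formaldehyde, 1 ug/ml Hoechst) and their nuclei counted on 4× images. Treatment had been applied by pin tool the day after seeding as one drug alone or as a fixed anchor-drug dose with five library-drug doses (not always all listed) in √10 steps. Relative viability is the nuclei count of treated wells divided by that of vehicle wells, and values are medians of duplicate plates.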

Linsitinib + Bortezomib = compound: C[C@]1(O)C[C@@H](c2nc(-c3ccc4ccc(-c5ccccc5)nc4c3)c3c(N)nccn32)C1 [Linsitinib] + CC(C)C[C@H](NC(=O)[C@H](Cc1ccccc1)NC(=O)c1cnccn1)B(O)O [Bortezomib] (partner 0.002 µM)
Procedure, shortened: as §1

Linsitinib + Pictilisib = compound: C[C@]1(O)C[C@@H](c2nc(-c3ccc4ccc(-c5ccccc5)nc4c3)c3c(N)nccn32)C1 [Linsitinib] + CS(=O)(=O)N1CCN(Cc2cc3nc(-c4cccc5[nH]ncc45)nc(N4CCOCC4)c3s2)CC1 [Pictilisib] (partner 1 µM)
Procedure, shortened: as §1

Ispinesib + Pemetrexed = compound: Cc1ccc(C(=O)N(CCCN)[C@@H](c2nc3cc(Cl)ccc3c(=O)n2Cc2ccccc2)C(C)C)cc1 [Ispinesib] + Nc1nc2[nH]cc(CCc3ccc(C(=O)N[C@@H](CCC(=O)O)C(=O)O)cc3)c2c(=O)[nH]1 [Pemetrexed] (partner 0.2 µM)
Procedure, shortened: as §1

| Cell Line | relative viability (Linsitinib + Tozasertib; first compound 0.01 µM) | relative viability (Linsitinib + Tozasertib; first compound 0.03162 µM) | relative viability (Linsitinib + Tozasertib; first compound 0.1 µM) | relative viability (Linsitinib + Tozasertib; first compound 0.3162 µM) | relative viability (Linsitinib + Tozasertib; first compound 1 µM) | relative viability (Linsitinib + Bortezomib; first compound 0.01 µM) | relative viability (Linsitinib + Bortezomib; first compound 0.03162 µM) | relative viability (Linsitinib + Bortezomib; first compound 0.1 µM) | relative viability (Linsitinib + Bortezomib; first compound 0.3162 µM) | relative viability (Linsitinib + Bortezomib; first compound 1 µM) | relative viability (Linsitinib + Pictilisib; first compound 0.01 µM) | relative viability (Linsitinib + Pictilisib; first compound 0.03162 µM) | relative viability (Linsitinib + Pictilisib; first compound 0.1 µM) | relative viability (Linsitinib + Pictilisib; first compound 0.3162 µM) | relative viability (Linsitinib + Pictilisib; first compound 1 µM) | relative viability (Ispinesib + Pemetrexed; first compound 0.001 µM) | relative viability (Ispinesib + Pemetrexed; first compound 0.003162 µM) | relative viability (Ispinesib + Pemetrexed; first compound 0.01 µM) | relative viability (Ispinesib + Pemetrexed; first compound 0.03162 µM) | relative viability (Ispinesib + Pemetrexed; first compound 0.1 µM) |
| --- | --- | --- | --- | --- | --- | --- | --- | --- | --- | --- | --- | --- | --- | --- | --- | --- | --- | --- | --- | --- |
| LC-2-ad | 0.48 | 0.523 | 0.387 | 0.285 | 0.41 | 1 | 1.1 | 1.02 | 0.664 | 0.636 | 0.423 | 0.369 | 0.409 | 0.396 | 0.269 | 0.288 | 0.259 | 0.262 | 0.23 | 0.149 |
| NCI-H1437 | 0.388 | 0.352 | 0.444 | 0.333 | 0.451 | 0.561 | 0.507 | 0.545 | 0.302 | 0.38 | 0.449 | 0.53 | 0.455 | 0.467 | 0.57 | 0.31 | 0.334 | 0.329 | 0.347 | 0.238 |
| NCI-H3122 | 0.458 | 0.373 | 0.437 | – | 0.425 | 0.994 | 1.05 | 1.04 | 0.86 | 1.03 | 0.601 | 0.58 | 0.572 | 0.499 | 0.399 | 0.196 | 0.221 | 0.198 | 0.217 | 0.107 |
| NCI-H1734 | 0.242 | 0.244 | 0.274 | 0.242 | 0.267 | 0.851 | 0.962 | 1.01 | 0.665 | 0.643 | 0.474 | 0.456 | 0.392 | 0.421 | 0.295 | 0.414 | 0.415 | 0.395 | 0.336 | 0.248 |
| HCC-15 | 0.389 | 0.424 | 0.404 | – | 0.319 | 1.04 | 0.938 | 1.1 | 0.297 | 0.785 | 0.743 | 0.703 | 0.824 | 0.234 | 0.583 | 0.241 | 0.258 | 0.23 | 0.221 | 0.144 |
| NCI-H2405 | 0.726 | 0.755 | 0.729 | 0.666 | 0.497 | 0.592 | 0.929 | 0.949 | 0.676 | 0.921 | 0.428 | 0.329 | 0.43 | 0.69 | 0.332 | 1.1 | 1.06 | 0.9 | 0.934 | 0.423 |
| NCI-H1993 | 0.561 | 0.606 | 0.619 | 0.579 | 0.602 | 1.26 | 1.29 | 1.32 | 0.797 | 0.695 | 0.831 | 0.832 | 0.843 | 0.643 | 0.896 | 0.652 | 0.677 | 0.637 | 0.587 | 0.404 |
| NCI-H1650 | 0.412 | 0.549 | 0.412 | 0.323 | 0.288 | 0.208 | 0.202 | 0.184 | 0.182 | 0.223 | 0.529 | 0.485 | 0.556 | 0.138 | 0.356 | 0.381 | 0.368 | 0.372 | 0.321 | 0.161 |
| NCI-H460 | 0.476 | 0.381 | 0.508 | 0.328 | 0.367 | 1.07 | 1.07 | 1.14 | 0.92 | 1.07 | 0.308 | 0.36 | 0.278 | 0.494 | 0.225 | 0.0593 | 0.0626 | 0.0626 | 0.0523 | 0.0519 |
| NCI-H1651 | 0.619 | 0.646 | 0.714 | 0.484 | 0.513 | 0.954 | 0.976 | 0.792 | 0.82 | 0.916 | 0.505 | 0.569 | 0.475 | 0.377 | 0.508 | 0.616 | 0.783 | 0.57 | 0.63 | 0.418 |
| NCI-H1975 | 0.691 | 0.677 | 0.865 | 0.665 | 0.311 | 0.332 | 0.348 | 0.373 | 0.404 | 0.296 | 0.286 | 0.253 | 0.246 | 0.255 | 0.178 | 0.328 | 0.327 | 0.322 | 0.277 | 0.155 |
| NCI-H2126 | 0.768 | 0.828 | 0.767 | 0.727 | 0.646 | 1.13 | 1.14 | 1.13 | 0.687 | 1.06 | 0.489 | 0.486 | 0.459 | 0.389 | 0.359 | 0.672 | 0.669 | 0.768 | 0.647 | 0.303 |
| 201T | 0.951 | 0.929 | 0.988 | 0.977 | 0.938 | 1.1 | 1.12 | 1.08 | 1.08 | 1.03 | 0.706 | 0.703 | 0.688 | 0.616 | 0.534 | 0.308 | 0.334 | 0.328 | 0.32 | 0.264 |
| HCC-78 | 0.643 | 0.482 | 0.418 | 0.378 | 0.319 | 0.511 | 0.645 | 0.507 | 0.525 | 0.395 | 0.205 | 0.225 | 0.162 | 0.203 | 0.204 | 0.916 | 0.931 | 0.937 | 0.932 | 0.617 |
| SK-LU-1 | 0.357 | – | 0.383 | 0.203 | 0.243 | 1.19 | 0.659 | 1.25 | 0.492 | 0.561 | 0.54 | 0.548 | 0.706 | – | 0.592 | 1.07 | 0.972 | 1.27 | 0.897 | 0.412 |
| H3255 | 0.626 | 0.65 | 0.612 | 0.497 | 0.559 | 0.803 | 0.796 | 0.812 | 0.541 | 0.627 | 0.571 | 0.52 | 0.566 | 0.468 | 0.45 | 0.575 | 0.604 | 0.515 | 0.525 | 0.39 |
